The values below come from ChEMBL document CHEMBL1150722, “Inhibitory effects of various flavonoids isolated from leaves of persimmon on angiotensin-converting enzyme activity” (J Nat Prod, 1987).

In experiment [1] the target is T1, Angiotensin-converting enzyme (Rattus norvegicus) (UniProt P47820).
T1 sequence (whole entry): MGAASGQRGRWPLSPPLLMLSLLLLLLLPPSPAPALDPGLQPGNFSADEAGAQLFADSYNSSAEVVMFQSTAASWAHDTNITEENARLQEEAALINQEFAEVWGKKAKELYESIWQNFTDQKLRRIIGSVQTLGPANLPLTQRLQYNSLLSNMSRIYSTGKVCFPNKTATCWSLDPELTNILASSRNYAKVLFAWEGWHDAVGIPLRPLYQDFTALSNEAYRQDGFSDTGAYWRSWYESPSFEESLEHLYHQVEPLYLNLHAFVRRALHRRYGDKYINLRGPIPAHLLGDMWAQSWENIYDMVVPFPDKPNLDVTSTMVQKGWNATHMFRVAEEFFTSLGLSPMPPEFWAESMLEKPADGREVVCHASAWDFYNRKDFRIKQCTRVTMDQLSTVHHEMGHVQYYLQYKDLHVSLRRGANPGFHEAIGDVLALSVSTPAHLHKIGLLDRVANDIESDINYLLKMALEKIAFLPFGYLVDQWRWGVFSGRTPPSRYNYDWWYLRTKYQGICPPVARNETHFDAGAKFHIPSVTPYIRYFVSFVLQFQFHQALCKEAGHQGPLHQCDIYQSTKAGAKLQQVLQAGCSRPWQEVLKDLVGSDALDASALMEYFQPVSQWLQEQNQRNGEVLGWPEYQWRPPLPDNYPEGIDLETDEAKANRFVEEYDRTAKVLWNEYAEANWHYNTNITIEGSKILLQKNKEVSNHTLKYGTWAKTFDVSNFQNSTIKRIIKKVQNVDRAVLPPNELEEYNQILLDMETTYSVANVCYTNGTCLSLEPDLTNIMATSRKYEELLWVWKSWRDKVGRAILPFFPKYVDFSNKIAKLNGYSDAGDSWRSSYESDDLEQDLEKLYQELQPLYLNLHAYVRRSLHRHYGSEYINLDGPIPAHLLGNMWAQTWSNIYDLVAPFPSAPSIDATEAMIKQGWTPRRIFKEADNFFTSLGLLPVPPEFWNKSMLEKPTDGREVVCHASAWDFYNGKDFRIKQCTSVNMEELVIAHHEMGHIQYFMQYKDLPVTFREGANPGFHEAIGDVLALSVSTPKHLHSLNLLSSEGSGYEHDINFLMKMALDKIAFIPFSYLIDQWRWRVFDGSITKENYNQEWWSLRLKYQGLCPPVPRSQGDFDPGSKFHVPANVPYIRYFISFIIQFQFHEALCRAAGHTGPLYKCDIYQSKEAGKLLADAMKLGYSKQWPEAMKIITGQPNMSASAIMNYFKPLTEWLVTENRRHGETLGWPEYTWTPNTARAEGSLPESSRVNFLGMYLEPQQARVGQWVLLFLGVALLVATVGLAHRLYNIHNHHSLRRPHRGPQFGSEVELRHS
Nature of the experiment: Inhibition of rat lung ACE at 150 ug/ml relative to control.

For experiment [2], the target named is T1, Angiotensin-converting enzyme (Rattus norvegicus). Nature of the experiment: Inhibition of rat lung ACE at 225 ug/ml relative to control.
For experiment [3] the target is unchanged. Nature of the experiment: Inhibition of rat lung ACE at 300 ug/ml relative to control.
For experiment [4], the target named is T2, Angiotensin-converting enzyme (Rattus norvegicus, UniProt P47820).
T2 sequence (P47820 whole entry): T1 sequence (whole entry)
Nature of the experiment: Inhibition of rat lung ACE.

Experiment [5] concerns the target T1, Angiotensin-converting enzyme (Rattus norvegicus). As to the kind of experiment: Inhibition of rat lung ACE at 38 ug/ml relative to control.
Experiment [6] shares this target. As to the kind of experiment: Inhibition of rat lung ACE at 56 ug/ml relative to control.
The target is the same in experiment [7]. As to the kind of experiment: Inhibition of rat lung ACE at 75 ug/ml relative to control.
For experiment [8] the target is unchanged. Nature of the experiment: Inhibition of rat lung ACE at 113 ug/ml relative to control.

Take `O=c1c(O[C@@H]2O[C@H](CO)[C@@H](O)[C@H](O)[C@H]2O)c(-c2ccc(O)cc2)oc2cc(O)cc(O)c12` [ASTRAGALIN]: the inhibition in experiment [1] was 53%; in experiment [2] it was 28%; in experiment [3] it was 67%; in experiment [5], 0%; in experiment [6], 2%; in experiment [7], 22%. Moreover, the inhibition in experiment [8] worked out at 31%. The concentration for half-maximal inhibition (IC50) in experiment [4] was 401 µM.
As to `O=C(O[C@H]1[C@H](Oc2c(-c3ccc(O)c(O)c3)oc3cc(O)cc(O)c3c2=O)O[C@H](CO)[C@@H](O)[C@@H]1O)c1cc(O)c(O)c(O)c1`, the inhibition in experiment [1] worked out at 39%; in experiment [2] it was 34%; in experiment [3] it was 48%; in experiment [5], 10%; in experiment [6], 12%; in experiment [7], 18%. The same compound came in with an inhibition in experiment [8] of 39%.
On to `O=c1c(O[C@@H]2O[C@H](CO)[C@@H](O)[C@H](O)[C@H]2O)c(-c2ccc(O)c(O)c2)oc2cc(O)cc(O)c12`, for which the inhibition was determined as 19% in experiment [1]; 19% in experiment [2]; 0% in experiment [5]; 0% in experiment [6]; 9% in experiment [7]; 3% in experiment [8].
As to `O=C(O[C@H]1[C@H](Oc2c(-c3ccc(O)cc3)oc3cc(O)cc(O)c3c2=O)O[C@H](CO)[C@@H](O)[C@@H]1O)c1cc(O)c(O)c(O)c1`, the inhibition is 35% in experiment [1]; 39% in experiment [2]; 53% in experiment [3]; 3% in experiment [5]; 6% in experiment [6]; 15% in experiment [7]. For the same compound, the inhibition in experiment [8] came to 35%. For the same compound, half-maximal inhibition in experiment [4] (IC50) required 466 µM.
